Experimental data: BindingDB's records for patent US20260042753 (Merck Patent, 2026)

Test system: Mast/stem cell growth factor receptor Kit [V654A]
Assay: c-Kit(V654A) Assay
Experimental: c-Kit(V654A) (N-terminal GST-tagged, recombinant human c-Kit, amino acids 544-end containing the V654A mutation) is incubated with 8 mM MOPS pH 7.0, 0.2 mM EDTA, 250 μM GGMEDIYEFMGGKKK, 10 mM MgAcetate and [gamma-33P-ATP](specific activity approx. 500 cpm/pmol, concentration 200 μM). The reaction is initiated by the addition of the MgATP mix. After incubation for 40 minutes at room temperature, the reaction is stopped by the addition of 3% phosphoric acid solution. 10 μL of the reaction is then spotted onto a P30 filtermat and washed three times for 5 minutes in 75 mM phosphoric acid and once in methanol prior to drying and scintillation counting.

| SMILES | IC50 |
| --- | --- |
| COCCNC(=O)c1ccc(-c2cc(-c3n[nH]c4cc(C(=O)NCCOC)ccc34)on2)cc1 [US20260042753, Compound A23] | 10 nM |
| COCCOc1cc2[nH]nc(-c3cc(-c4ccc(N5CC[C@H]6[C@H]5CCN6C)cc4)no3)c2cc1F (relative stereo) [US20260042753, Compound A126] | 1.7 nM |
| COCCOc1cc2[nH]nc(-c3cc(-c4ccc(C(=O)N5C[C@H]6CCOC[C@H]6C5)cc4)no3)c2cc1F (relative stereo) [US20260042753, Compound A214] | 0.44 nM |
| COCCOc1cc2[nH]nc(-c3cc(-c4ccc([SH2+]([O-])C=N)cc4)no3)c2cc1F [US20260042753, Compound A226] | 2 nM |
| COCCOc1cc2[nH]nc(-c3cc(-c4ccc(C(=O)N5CC[C@H]6COC[C@H]6C5)cc4)no3)c2cc1F (relative stereo) [US20260042753, Compound A215] | 0.76 nM |
| COCCOc1cc2[nH]nc(-c3cc(-c4ccc(C(=O)N5CC[C@@H]6CNC(=O)[C@@H]65)cc4)no3)c2cc1F (relative stereo) [US20260042753, Compound A89] | 0.57 nM |
| COCCOc1cc2[nH]nc(-c3cc(-c4ccc(C(=O)N5C[C@@H]6CC(=O)N[C@@H]6C5)cc4)no3)c2cc1F (relative stereo) [US20260042753, Compound A203] | 1.4 nM |
